Source: US20090305993A1, “METHODS AND COMPOSITION FOR THE TREATMENT OF GASTROINTESTINAL DISORDERS” (IRONWOOD PHARMACEUTICALS, INC., priority 2006, published 2009)
Where a SMILES comes first, the peptide text is derived from it. Bridges are numbered along the chain shown (N, C = ends).

Columns and labels:
WT and GC-C KO mice = test: colorectal distension under basal conditions in WT and GC-C KO mice; format: in vivo, mouse; conditions: oral 0.01 and 0.3 μg/kg
Method: TNBS induced visceral hypersensitivity was assessed in WT and GC-C KO mice. Two groups (WT and GC-C KO) of male mice (22-25 g) were surgically prepared for electromyographic (EMG) recordings. Three electrodes were implanted in the striated muscles of the abdomen for EMG recording of abdominal contractions. Colorectal distension (CRD) was performed with a balloon inflated by 10s steps of 0.02 ml from 0 to 0.12 ml. Under basal conditions mice were submitted to control CRD (time 0) followed by oral administration of SEQ ID NO:3 (0.01 and 0.3 μg/kg) or vehicle only (distilled water, 1 ml) at 3 hours. One hour post dosing the CRD procedure was repeated. Abdominal EMG contractile response to colorectal distension in basal conditions in both WT and GC-C KO mice (12-14 mice per group) was determined in the absence of vehicle and SEQ ID NO:3, and the mean+/−standard error of the mean (SEM) is graphically depicted in FIG. 7c.

[1] = oral bioavailability in mice, radioimmunoassay (RIA); conditions: female, CD-1, mouse, in vivo
Method: Oral bioavailability was also determined using a radioimmunoassay (RIA) detection method. Female CD-1 mice (Charles River, Wilmington, Mass.) weighing approximately 25 g (7-8 weeks old) or female CD rats (Charles River, Wilmington, Mass.) weighing approximately 153 g were included in this study. Monoclonal antibody, 20C1 (Brandwein et al. 1985 Infect Immun. 47:242-246), which recognizes SEQ ID NO:7 and 1251 labeled—SEQ ID NO:7, a labeled tracer, were used in these experiments. The labeled tracer was purified by HPLC using a Waters C-18u Bondapak® column (25 cm) previously equilibrated with 10 mM ammonium acetate pH 5.8. […] Blood was drawn from all dosed animals by retro-orbital eye bleeding at specific intervals and test compound levels were analyzed by radioimmunoassay (RIA). […] Radioactivity was measured in a LS 6500 scintillation counter (Beckman-Coulter). The binding efficiency is defined as the percent radioactivity in the B0 sample compared to the input counts. The percent bound in each sample was calculated by the equation: […]
A standard curve was prepared by plotting % B/B0 as a function of the log SEQ ID NO:3 concentration. […] The area under the curve from T=0 to 4 hours (AUC0-4h) was calculated by the software for both p.o. and i.v. dosed animals. […] Oral Bioavailability (F) is calculated using the equation: […]

Q: With `C[C@@H]1NC(=O)[C@@H]2CCCN2C(=O)[C@H](CC(N)=O)NC(=O)[C@@H]2CSSC[C@H](N)C(=O)N[C@H]3CSSC[C@H](NC1=O)C(=O)N[C@@H]([C@@H](C)O)C(=O)NCC(=O)N[C@H](C(=O)N[C@@H](Cc1ccc(O)cc1)C(=O)O)CSSC[C@H](NC(=O)[C@H](Cc1ccc(O)cc1)NC(=O)[C@H](CCC(=O)O)NC3=O)C(=O)N2` [SEQ ID NO:3] (H-CCEYCCNPACTGCY-OH; disulfide 1-6, 2-10, 5-13; N-terminus and C-terminus assumed) as the molecule, how does the “EMG response to colorectal distension” value (WT and GC-C KO mice) read?
A: decreased the EMG response to colorectal distension

Q: And the AUC ([1]; 8 mg/kg oral, read-out: AUCp.o.,(0-4h))?
A: ≤ 11.5 ng·h/mL

Q: And the bioavailability ([1]; oral, 8 mg/kg, over 4 hours, read-out: bioavailability (F))?
A: ≤ 0.04%
